According to patent US10238631B2, “Sesquiterpene derivatives and their use in inflammation or cancer treatment” (Academia Sinica, priority 2014, dated 2019):
Where “and” joins values, the source holds several entries; their conditions need not be identical. Equal values may be shown once. Read-outs that look alike come from different tables or passages of the source.

Columns and labels:
U937 lymphoma line = assay: MTT cell viability assay, U937; format: cell-based; details: Homo sapiens, U-937, 24 h
Method: (§1) Normal or cancer cells (2×10^3 to 1×10^4 cells/well) were seeded in 96-well plate for overnight and treated with different compounds for 24 h to 72 h. Cells growth were determined by MTT-based colorimetric assays according to. Viability of the test cells treated with vehicle (0.5% DMSO) only was defined as 100% viable. Survival of cells after treatment with DETDs was calculated using the following formula: viable cell number (%)=OD570 (treated cell culture)/OD570 (vehicle control)×100.
(§2) Based on toxicity results of DET and DETDs on different breast cancer and melanoma cell lines, we selected DETD-6, -32, -35 and -39, under the consideration of structure activity relationship for evaluating their suppression effect against other cancer types of cell line with indicated tumor origin in Table 5. […] The cells were treated with compounds for 24 h and then subjected to MTT assays.

[1] = test system: PC6 lung cancer cell line; assay: MTT cell viability assay, PC6; format: cell-based; details: 24 h
Method: as §1, §2

[2] = test system: MDA-MB-231 (ER−, PR−, Her2−) human breast cancer cells; assay: MTT cell viability assay, MDA-MB-231 cells; format: cell-based; details: for IC50: Homo sapiens
How it was run: (§3)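 Cells (2×10^3 to 1×10^4 cells/well) were seeded overnight, then exposed to compounds for 24 h to 72 h. Growth was measured by MTT colorimetric assay, with viability calculated as OD570 of treated over vehicle (0.5% DMSO) control ×100.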

[3] = test system: MeWo (No NRAS or BRAF mutation); assay: MTT cell viability assay, MeWo melanoma; format: cell-based, human; details: Homo sapiens, MeWo, 24 h
How it was run: (§4)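 Cells seeded at 2×10^3 to 1×10^4 cells/well overnight, then exposed to compounds for 24 h to 72 h. Growth measured by MTT colorimetric assay; viability expressed as OD570 treated/OD570 vehicle (0.5% DMSO) ×100.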

[4] = test system: MCF-7 (ER+, Her2−) human breast cancer cells; assay: MTT cell viability assay, MCF-7 cells; format: cell-based
How it was run: as §3

PC3 (Prostate) = assay: MTT cell viability assay, PC3; format: cell-based; details: 24 h
Method: as §1, §2

[5] = test system: melanoma cell lines B16-F10, MeWo, A375, A2058, HTB-68; assay: MTT cell viability assay, all melanoma cell lines; format: cell-based; details: 24 h, read-out: IC50 values over all types of melanoma cell lines
Method: as §1
Several genes are involved in melanoma development and pathology; specifically, mutation in V-raf murine sarcoma viral oncogene homolog B1 (B-RAF) occurs approximately 50-60% and in neuroblastoma RAS viral oncogene homolog (N-RAS) occurs about 30% of malignant melanomas. A spectrum of wild-type or mutated melanoma cell lines including B16-F10, MeWo, A375, A2058, HTB-68, and melanocyte were used to study anti-melanoma cell proliferation activity of parental phytocompound DET and newly synthesized DETDs.

[6] = test system: RAW264.7 (normal macrophage); assay: MTT cell viability assay, RAW264.7 macrophages; format: cell-based, mouse; details: Mus musculus, RAW264.7, 24 h
How it was run: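 RAW264.7 macrophages (2×10^5 cells/well) pretreated with compounds 1 h, then incubated 24 h with or without 100 ng/μL LPS. Viability by MTT colorimetric assay run in parallel with Griess nitrite measurement.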

[7] = test system: A498 kidney cancer cell line; assay: MTT cell viability assay, A498; format: cell-based; details: Homo sapiens, 24 h
Method: as §1, §2

A2058 (BRAF mutation) = assay: MTT cell viability assay, A2058 melanoma; format: cell-based, human; details: Homo sapiens, A2058, 24 h
How it was run: as §4

A375 (BRAF mutation) = assay: MTT cell viability assay, A375 melanoma; format: cell-based, human; details: Homo sapiens, A-375, 24 h, 24 h, MTT; read-out: IC50 on cell viability, A375 (BRAF mutation)
How it was run: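 A375 cells were seeded at 2×10^3 to 1×10^4 per well overnight and then exposed to compounds for 24 h to 72 h. Viability was measured by MTT absorbance at OD570 relative to 0.5% DMSO vehicle (100%), and IC50 was derived from it. Combination with PLX4032 was scored by combination index.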

[8] = test system: Melanocyte (Normal cells); assay: MTT cell viability assay, normal melanocytes; format: cell-based, human; details: Homo sapiens, Melanocyte, 24 h
How it was run: as §4

[9] = test system: LPS-induced nitric oxide (NO) production in RAW 264.7 cells; assay: Nitric oxide production in LPS-stimulated macrophages (Griess); format: cell-based, mouse; details: for IC50: Mus musculus, LPS-stimulated RAW264.7, nitrite 24 h after LPS
How it was run: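 RAW 264.7 macrophages (2×10^5 cells/well) were pretreated with compound for 1 h and then stimulated with 100 ng/μL LPS for 24 h. NO was measured as nitrite in the medium by the Griess reaction. Viability was checked in parallel by MTT.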

[10] = test system: M10 normal mammary epithelial cells; assay: MTT cell viability assay, M10 normal cells; format: cell-based, human; details: 24 h; for IC50: Homo sapiens, Epithelial cell
How it was run: as §3

[11] = test system: KATO III stomach cancer cell line; assay: MTT cell viability assay, KATO III; format: cell-based; details: Homo sapiens, 24 h
Method: as §1, §2

[12] = test system: HCT-116 colon cancer cell line; assay: MTT cell viability assay, HCT-116; format: cell-based; details: Homo sapiens, 24 h
Method: as §1, §2

[13] = test system: TS/A (ER+, Her2−) murine mammary cancer cells; assay: MTT cell viability assay, TS/A cells; format: cell-based; details: Mus musculus
How it was run: as §3

[14] = test system: SK-N-MC neuroepithelioma line; assay: MTT cell viability assay, SK-N-MC; format: cell-based; details: Homo sapiens, 24 h
Method: as §1, §2

[15] = test system: U-87MG brain cancer cell line; assay: MTT cell viability assay, U-87MG; format: cell-based; details: Homo sapiens, 24 h
Method: as §1, §2

B16-F10 (NRAS mutation) = assay: MTT cell viability assay, B16-F10 melanoma; format: cell-based; details: Mus musculus, B16-F10, 24 h
How it was run: as §4

[16] = test system: NES-SA uterus cancer cell line; assay: MTT cell viability assay, NES-SA; format: cell-based; details: 24 h
Method: as §1, §2

HTB-68 (NRAS mutation) = assay: MTT cell viability assay, HTB-68 melanoma; format: cell-based, human; details: Homo sapiens, 24 h
How it was run: as §4

MDA-MB-231 cells [17] = test system: MDA-MB-231 cells
Method: Briefly, cells (5×10^3 cells/well) were seeded in 96-well plates and treated with BSO at concentrations 100 μM, 45 μM, 18 μM, 7.2 μM, 2.8 μM, 1.15 μM, 461 nM, 184 nM, 74 nM and 29 nM, and sulfasalazine at concentrations 62.75 μM, 25.10 μM, 10 μM, 4 μM, 1.6 μM, 642 nM, 257 nM, 102 nM, 41 nM and 16.4 nM for 30 h, and then 12 μM DET or 3 μM DETD-35 were added in the cultural medium to treat the cells for another 24 h. Cell proliferation was measured by MIT assay.

MDA-MB-231 cells [18] = assay: Compound-drug combination assay with PTX; format: cell-based, human; details: 0-4 μM compound, 0-25 nM PTX
Method: Cell proliferation was measured by MTT assay. Isobologram analysis and Chou-Talalay method was used to determine the effects of compound drug combinations. The interaction of DETDs and PLX4032 or PTX was determined by the combination index (CI), and the CI plot was generated using CompuSyn software. The combined effects of two compounds can be categorized as follows: CI=1 indicates additive interaction, CI<1 indicates synergism, and CI>1 indicates antagonism.
To investigate whether or not DETD-35 and DETD-39 act synergistically with PTX against MDA-MB-231 cell activity, anti-proliferation assay using MTT reagent was performed to obtain the IC60 value of each compound. […] Based on the IC60 values, DETD-35 or DETD-39 ranging from 0 to 4 μM and PIX from 0 to 25 nM were used for compound-drug combination study. Classic isobologram analysis and Chou-Talalay method were conducted to investigate the synergistic effect of compound and drug. Combination index (CI) was calculated with CalcuSyn software (Version 2.0, Biosoft) and expressed as CI vs. Fa (fraction affected). CI<1 indicates synergy; CI=1 indicates additive effect; and CI>1 indicates antagonism.

[19] = MDA-MB-231, 24 h, read-out: IC50 on cell viability, MDA-MB-231 (ER−, PR−, Her2−)
[20] = MDA-MB-231, Table 5, 24 h, read-out: IC50 viability MDA-MB-231 (Breast)
[21] = MCF7, 24 h, read-out: IC50 on cell viability, MCF-7 (ER+, Her2−)
[22] = MCF7, Table 5, 24 h, read-out: IC50 viability MCF-7 (Breast)
[23] = 24 h, read-out: IC50 on cell viability, TS/A (ER+, Her2−)
[24] = Table 5, 24 h, read-out: IC50 viability TS/A (mouse) (Breast)
[25] = 24 h, read-out: IC50 on cell viability, B16-F10 (NRAS mutation)
[26] = Table 5, 24 h, read-out: IC50 viability B16-F10 (mouse) (Skin)

| IC50 (U937 lymphoma line) [nM] | IC50 [1] [nM] | IC50 [2, 19] [nM] | IC50 [2, 20] [nM] | IC50 [3] [nM] | IC50 [4, 21] [nM] | IC50 [4, 22] [nM] | IC50 (PC3 (Prostate)) [nM] | IC50 [5] | IC50 [7] [nM] | IC50 (A2058 (BRAF mutation)) [nM] | IC50 (A375 (BRAF mutation)) [nM] | IC50 [9] [nM] | IC50 [11] [nM] | IC50 [12] [nM] | IC50 [13, 23] [nM] | SMILES | IC50 [6] [nM] | IC50 [8] [nM] | IC50 on cell viability, M10 (normal) [10] | IC50 [10] [nM] | further results |
| --- | --- | --- | --- | --- | --- | --- | --- | --- | --- | --- | --- | --- | --- | --- | --- | --- | --- | --- | --- | --- | --- |
| 180 | 170 | 4200 | 4000 | 9900 | 1600 | 4800 | 4500 | 1600 to 9900 nM | 1110 | 3900 | 3300 | 2500 | 420 | 110 | 1600 | C=C1C(=O)O[C@H]2CC3=C[C@@H](C/C(C)=C/[C@@H](OC(=O)/C=C/c4ccccc4)[C@H]12)OC3=O [DETD-6] | > 10000 | > 10000 | some toxicity | 4900 | IC50 [13, 24]: 1800 nM; IC50 [14]: 320 nM; IC50 [15]: 350 nM; IC50 (B16-F10 (NRAS mutation); [25]): 3900 nM; IC50 (B16-F10 (NRAS mutation); [26]): 3900 nM; IC50 [16]: 420 nM; IC50 (HTB-68 (NRAS mutation)): 5700 nM |
| – | – | – | – | – | – | – | – | – | – | – | – | – | – | – | – | CCCCS(=N)(=O)CCC(N)C(=O)O (stereo not shown) [BSO, buthionine sulfoximine] | – | – | – | – | cytotoxicity of blocker alone (MDA-MB-231 cells [17]): did not show any cytotoxicity |
| 100 | 110 | 1900 | 1900 | 3500 | 2100 | 2400 | 2600 | 1600 to 9900 nM and 1600 to 3500 nM | 480 | 2400 | 1600 | 1000 | 290 | 100 | 800 | C=C1C(=O)OC2CC3=C[C@@H](C/C(C)=C/C(OC(=O)/C=C/c4cccc(OC)c4)[C@H]12)OC3=O (stereo partly shown) [DETD-39] | 3500 | 9000 | some toxicity | 3700 | IC60 on MDA-MB-231 cells ([2]; 24 h): 3790 nM; fold decrease in IC50 of NO production vs DET [9]: 3 fold; combination effect with PTX (isobologram, combination index) (MDA-MB-231 cells [18]): acted synergistically; IC50 [13, 24]: 800 nM; IC50 [14]: 110 nM; IC50 [15]: 150 nM; IC50 (B16-F10 (NRAS mutation); [25]): 1700 nM; IC50 (B16-F10 (NRAS mutation); [26]): 1700 nM; IC50 [16]: 140 nM; IC50 (HTB-68 (NRAS mutation)): 3200 nM |
